From ChEMBL document CHEMBL5614434, “A Lysosome-Targeting hNEU1 Inhibitor Treats Myocardial Infarction: A Potential Therapeutic Breakthrough” (J Med Chem, 2024) come the findings set out here.

Structures are written as SMILES.

This series deals with H9c2. Put plainly: Cytotoxicity against rat H9c2 cells assessed as cell viability at 0.001 to 50 uM under normoxia condition by CCK-8 method. The class given is toxicity, cell-based. The note with it: h9c2, 50 µM, dose 0.001-50 µM.

Turning to `CCC(CC)O[C@@H]1C=C(C(=O)OCCN(C)C)C[C@H](N)[C@H]1NC(C)=O`, the Activity result is reported as “Non-Toxic”.
The value for `CCC(CC)O[C@@H]1C=C(C(=O)OCCc2ccncc2)C[C@H](N)[C@H]1NC(C)=O` was “Non-Toxic”.
